What was measured:
Type in all cases: in vivo
pale smartweed (Po) [1] = assay: Test Example 7: crop plant selectivity by upland field soil treatment (corn), herbicidal effects; design: scale not given here; settings: dose 6.3 g ai/10a, 21st day after application
Description: (§1) (Test on Crop Plant Selectivity by Upland Field Soil Treatment)
(§2) In a plastic pot (surface area: 600 cm^2) filled with sand, corn (Ze), green foxtail (Se), pale smartweed (Po), slender amaranth (Am), common lambsquarters (Ch) and China jute (Ab) were sown and covered with soil. […] The plants were then cultured in a green house, and the evaluation of the herbicidal effects and phytotoxicity was conducted on the 21st day after the application in accordance with the standards as identified in Table 47.

China jute (Ab) [2] = assay: as above; design: scale not given here; settings: dose 6.3 g ai/10a, 21st day after application
Description: as §1, §2

green foxtail (Se) [3] = assay: as above; design: scale not given here; settings: dose 6.3 g ai/10a, 21st day after application
Description: as §1, §2

slender amaranth (Am) [4] = assay: as above; design: scale not given here; settings: dose 6.3 g ai/10a, 21st day after application
Description: as §1, §2

[5] = tested on: common lambsquarters (Ch); assay: as above; design: scale not given here; settings: dose 6.3 g ai/10a, 21st day after application
Description: as §1, §2

pale smartweed (Po) [6] = assay: Test Example 4: crop plant selectivity by upland field soil treatment (cotton), herbicidal effects; design: scale not given here; settings: dose 6.3 g ai/10 a, evaluated 21st day after application
Description: as §1
(§3) In a plastic pot (surface area: 600 cm^2) filled with sand, cotton (Go), Diaitaria ciliaris (Di), green foxtail (Se), pale smartweed (Po), slender amaranth (Am), common lambsquarters (Ch) and China jute (Ab) were sown and covered with soil. […] The plants were then cultured in a green house, and the evaluation of the herbicidal effects and phytotoxicity was conducted on the 21st day after the application in accordance with the standards as identified in Table 47. Symbol—represents “not tested”.

China jute (Ab) [7] = assay: as above; design: scale not given here; settings: dose 6.3 g ai/10 a, evaluated 21st day after application
Description: as §1, §3

green foxtail (Se) [8] = assay: as above; design: scale not given here; settings: dose 6.3 g ai/10 a, evaluated 21st day after application
Description: as §1, §3

slender amaranth (Am) [9] = assay: as above; design: scale not given here; settings: dose 6.3 g ai/10 a, evaluated 21st day after application
Description: as §1, §3

[10] = tested on: common lambsquarters (Ch); assay: as above; design: scale not given here; settings: dose 6.3 g ai/10 a, evaluated 21st day after application
Description: as §1, §3

barnyardgrass (Ec) [11] = assay: Test Example 1: herbicidal effects by paddy field soil treatment; settings: 100 g of the active ingredient per 10 ares, 21st day after the application, index 0-5 of Table 47;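 further: grade of growth control; 5 = at least 90%; 4 = 70 to 90%; 3 = 50 to 70%; 2 = 30 to 50%; 1 = 10 to 30%; 0 = under 10%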
How it was run: (§4)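 Scoring of herbicidal effect came 21 days after application of 100 g active ingredient per 10 ares to flooded (3 cm) paddy-soil pots sown with barnyardgrass, monochoria and bulrush, kept in a greenhouse.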

monochoria (Mo) = assay: as above; settings: 100 g of the active ingredient per 10 ares, 21st day after the application, index 0-5 of Table 47;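 further: grade of growth control; 5 = at least 90%; 4 = 70 to 90%; 3 = 50 to 70%; 2 = 30 to 50%; 1 = 10 to 30%; 0 = under 10%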
How it was run: as §4

bulrush (Sc) = assay: as above; settings: 100 g of the active ingredient per 10 ares, 21st day after the application, index 0-5 of Table 47;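 further: grade of growth control; 5 = at least 90%; 4 = 70 to 90%; 3 = 50 to 70%; 2 = 30 to 50%; 1 = 10 to 30%; 0 = under 10%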
How it was run: as §4

corn (Ze) = assay: Test Example 7: crop plant selectivity by upland field soil treatment (corn), phytotoxicity; design: scale not given here; settings: dose 6.3 g ai/10a, 21st day after application
Description: as §1, §2

pale smartweed (Po) [12] = assay: Test Example 5: crop plant selectivity by upland field soil treatment (wheat), herbicidal effects; design: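 grade of growth control; 5 = at least 90%; 4 = 70 to 90%; 3 = 50 to 70%; 2 = 30 to 50%; 1 = 10 to 30%; 0 = under 10%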; settings: dose 6.3 g ai/10a, 21st day after application
Description: as §1
(§5) In a plastic pot (surface area: 600 cm^2) filled with sand, wheat (Tr), Diaitaria ciliaris (Di), green foxtail (Se), pale smartweed (Po), slender amaranth (Am), common lambsquarters (Ch) and China jute (Ab) were sown and covered with soil. […] The plants were then cultured in a green house, and the evaluation of the herbicidal effects and phytotoxicity was conducted on the 21st day after the application in accordance with the standards as identified in Table 47. Symbol—represents “not tested”.

China jute (Ab) [13] = assay: as above; design: scale not given here; settings: dose 6.3 g ai/10a, 21st day after application
Description: as §1, §5

green foxtail (Se) [14] = assay: as above; design: scale not given here; settings: dose 6.3 g ai/10a, 21st day after application
Description: as §1, §5

slender amaranth (Am) [15] = assay: as above; design: scale not given here; settings: dose 6.3 g ai/10a, 21st day after application
Description: as §1, §5

[16] = tested on: common lambsquarters (Ch); assay: as above; design: scale not given here; settings: dose 6.3 g ai/10a, 21st day after application
Description: as §1, §5

cotton (Go) = assay: Test Example 4: crop plant selectivity by upland field soil treatment (cotton), phytotoxicity; design: scale not given here; settings: dose 6.3 g ai/10 a, evaluated 21st day after application
Description: as §1, §3

wheat (Tr) = assay: Test Example 5: crop plant selectivity by upland field soil treatment (wheat), phytotoxicity; design: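 grade of crop injury; 5 = at least 90%; 4 = 70 to 90%; 3 = 50 to 70%; 2 = 30 to 50%; 1 = 10 to 30%; 0 = under 10%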; settings: dose 6.3 g ai/10a, 21st day after application
Description: as §1, §5

pale smartweed (Po) [17] = assay: Test Example 6: crop plant selectivity by upland field soil treatment (soybean), herbicidal effects; design: scale not given here; settings: dose 6.3 g ai/10a, 21st day after application
Description: as §1
(§6) In a plastic pot (surface area: 600 cm^2) filled with sand, soybean (Gl), Diaitaria ciliaris (Di), green foxtail (Se), Johnsongrass (So), pale smartweed (Po), slender amaranth (Am), common lambsquarters (Ch) and China jute (Ab) were sown and covered with soil. […] The plants were then cultured in a green house, and the evaluation of the herbicidal effects and phytotoxicity was conducted on the 21st day after the application in accordance with the standards as identified in Table 47. Symbol—represents “not tested”.

China jute (Ab) [18] = assay: as above; design: scale not given here; settings: dose 6.3 g ai/10a, 21st day after application
Description: as §1, §6

green foxtail (Se) [19] = assay: as above; design: scale not given here; settings: dose 6.3 g ai/10a, 21st day after application
Description: as §1, §6

slender amaranth (Am) [20] = assay: as above; design: scale not given here; settings: dose 6.3 g ai/10a, 21st day after application
Description: as §1, §6

[21] = tested on: common lambsquarters (Ch); assay: as above; design: scale not given here; settings: dose 6.3 g ai/10a, 21st day after application
Description: as §1, §6

soybean (Gl) = assay: Test Example 6: crop plant selectivity by upland field soil treatment (soybean), phytotoxicity; design: scale not given here; settings: dose 6.3 g ai/10a, 21st day after application
Description: as §1, §6

barnyardgrass (Ec) [22] = assay: Test Example 3: herbicidal effects by upland field foliage treatment; design: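 grade of growth control; 5 = at least 90%; 4 = 70 to 90%; 3 = 50 to 70%; 2 = 30 to 50%; 1 = 10 to 30%; 0 = under 10%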; settings: 100 g of the active ingredient per 10 ares, evaluated on the 14th day after treatment
How it was run: (§7)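 Sowing into sand pots with a 120 cm^2 surface, followed by soil covering and 2 weeks of greenhouse growth, preceded the leaf treatment. Scoring of weed control took place on the 14th day afterwards according to set evaluation criteria.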

pale smartweed (Po) [23] = assay: as above; design: scale not given here; settings: 100 g of the active ingredient per 10 ares, evaluated on the 14th day after treatment
How it was run: as §7

rice flatsedge (Ci) [24] = assay: as above; design: scale not given here; settings: 100 g of the active ingredient per 10 ares, evaluated on the 14th day after treatment
How it was run: as §7

slender amaranth (Am) [25] = assay: as above; design: scale not given here; settings: 100 g of the active ingredient per 10 ares, evaluated on the 14th day after treatment
How it was run: as §7

Diaitaria ciliaris (Di) = assay: as above; design: scale not given here; settings: 100 g of the active ingredient per 10 ares, evaluated on the 14th day after treatment
How it was run: as §7

[26] = tested on: common lambsquarters (Ch); assay: as above; design: scale not given here; settings: 100 g of the active ingredient per 10 ares, evaluated on the 14th day after treatment
How it was run: as §7

barnyardgrass (Ec) [27] = assay: Test Example 2: herbicidal effects by upland field soil treatment; settings: 100 g of the active ingredient per 10 ares, 21st day after the application, index 0-5 of Table 47;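 further: grade of growth control; 5 = at least 90%; 4 = 70 to 90%; 3 = 50 to 70%; 2 = 30 to 50%; 1 = 10 to 30%; 0 = under 10%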
From the text: (§8) (Test on Herbicidal Effects by Upland Field Soil Treatment)

Digitaria ciliaris (Di) = assay: as above; settings: 100 g of the active ingredient per 10 ares, 21st day after the application, index 0-5 of Table 47
From the text: as §8

pale smartweed (Po) [28] = assay: as above; settings: 100 g of the active ingredient per 10 ares, 21st day after the application, index 0-5 of Table 47
From the text: as §8

rice flatsedge (Ci) [29] = assay: as above; settings: 100 g of the active ingredient per 10 ares, 21st day after the application, index 0-5 of Table 47
From the text: as §8

slender amaranth (Am) [30] = assay: as above; settings: 100 g of the active ingredient per 10 ares, 21st day after the application, index 0-5 of Table 47
From the text: as §8

[31] = tested on: common lambsquarters (Ch); assay: as above; settings: 100 g of the active ingredient per 10 ares, 21st day after the application, index 0-5 of Table 47
From the text: as §8

SMILES: Cn1c(C(F)(F)F)ccc(-c2cc(Br)c(Cl)cc2F)c1=O [1-138]
- Herbicidal effects Po (pale smartweed (Po) [1]): 5
- Herbicidal effects Ab (China jute (Ab) [2]): 4
- Herbicidal effects Se (green foxtail (Se) [3]): 5
- Herbicidal effects Am (slender amaranth (Am) [4]): 5
- Herbicidal effects Ch [5]: 5
- Herbicidal effects Po (pale smartweed (Po) [6]): 5
- Herbicidal effects Ab (China jute (Ab) [7]): 4
- Herbicidal effects Se (green foxtail (Se) [8]): 5
- Herbicidal effects Am (slender amaranth (Am) [9]): 5
- Herbicidal effects Ch [10]: 5
- Herbicidal effects Ec (barnyardgrass (Ec) [11]): 5
- Herbicidal effects Mo (monochoria (Mo)): 5
- Herbicidal effects Sc (bulrush (Sc)): 5
- Phytotoxicity Ze (corn (Ze)): 2
- Herbicidal effects Po (pale smartweed (Po) [12]): 5
- Herbicidal effects Ab (China jute (Ab) [13]): 4
- Herbicidal effects Se (green foxtail (Se) [14]): 5
- Herbicidal effects Am (slender amaranth (Am) [15]): 5
- Herbicidal effects Ch [16]: 5
- Phytotoxicity Go (cotton (Go)): 1
- Phytotoxicity Tr (wheat (Tr)): 1
- Herbicidal effects Po (pale smartweed (Po) [17]): 5
- Herbicidal effects Ab (China jute (Ab) [18]): 4
- Herbicidal effects Se (green foxtail (Se) [19]): 5
- Herbicidal effects Am (slender amaranth (Am) [20]): 5
- Herbicidal effects Ch [21]: 5
- Phytotoxicity Gl (soybean (Gl)): 2
- Herbicidal effects Ec (barnyardgrass (Ec) [22]): 5
- Herbicidal effects Po (pale smartweed (Po) [23]): 5
- Herbicidal effects Ci (rice flatsedge (Ci) [24]): 5
- Herbicidal effects Am (slender amaranth (Am) [25]): 5
- Herbicidal effects Di (Diaitaria ciliaris (Di)): 5
- Herbicidal effects Ch [26]: 5
- Herbicidal effects Ec (barnyardgrass (Ec) [27]): 5
- Herbicidal effects Di (Digitaria ciliaris (Di)): 5
- Herbicidal effects Po (pale smartweed (Po) [28]): 5
- Herbicidal effects Ci (rice flatsedge (Ci) [29]): 5
- Herbicidal effects Am (slender amaranth (Am) [30]): 5
- Herbicidal effects Ch [31]: 5

Reference: US6472348B1, “Pyridone derivatives and herbicides” (Kumiai Chemical Industry Co., Ltd., priority 1996, dated 2002)
